Test results reported in PubChem BioAssay AID2060508 (Molecular Pharmacology Branch, DTP, NCI, 2025).

test system: 454973-116-R2-J3-PDC spheroids, viability, % test/control; assay: Anticancer human tumor 454973-116-R2-J3-PDC patient-derived pancreatic carcinoma cell line growth inhibition [GQUAD]; conditions: second compound 0.316 µM; first compound 0.316 µM; active compounds read low; spheroids with HUVEC and MSC
Method in brief: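 Tumor cells were grown as complex spheroids with HUVEC endothelial cells and mesenchymal stem cells as stroma. G-quadruplex stabilizers were combined with targeted agents over half-log dilutions from near the clinical Cmax, or from 10 microM.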
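Also: spheroids exposed to compounds for seven days; 100% = DMSO vehicle control viability.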

**Q.** COc1cc(C2c3cc4c(cc3C(OC3OC5COC(C)OC5C(O)C3O)C3COC(=O)C23)OCO4)cc(OC)c1O (stereo unspecified) + Cc1[nH]c2ccc(F)cc2c1-c1nc2c3cccnc3c3ncccc3c2[nH]1 was tested. Which viability, T/C did it give?
**A.** 83.7%

**Q.** Which viability, T/C does the source give for COc1cccc2c1C(=O)c1c(O)c3c(c(O)c1C2=O)CC(O)(C(=O)CO)CC3OC1CC(N)C(O)C(C)O1 (stereo unspecified) + Cc1[nH]c2ccc(F)cc2c1-c1nc2c3cccnc3c3ncccc3c2[nH]1 here?
**A.** 27.6%

**Q.** Which viability, T/C does the source give for Cc1cccc(N(C)C(=O)C2C(O)CCN2c2nc(C)cc(C(F)(F)F)c2C#N)c1 (stereo unspecified) + Cc1[nH]c2ccc(F)cc2c1-c1nc2c3cccnc3c3ncccc3c2[nH]1 here?
**A.** 109%

same assay, conditions: second compound 0.316 µM; first compound 1 µM; active compounds read low; spheroids with HUVEC and MSC

**Q.** For C=CC(=O)N1CCN(c2nc(=O)n(-c3c(C)ccnc3C(C)C)c3nc(-c4c(O)cccc4F)c(F)cc23)C(C)C1 (stereo unspecified) + Cc1[nH]c2ccc(F)cc2c1-c1nc2c3cccnc3c3ncccc3c2[nH]1, which viability, T/C is on record?
**A.** 100%

**Q.** For COc1cc(C2c3cc4c(cc3C(OC3OC5COC(C)OC5C(O)C3O)C3COC(=O)C23)OCO4)cc(OC)c1O (stereo unspecified) + Cc1[nH]c2ccc(F)cc2c1-c1nc2c3cccnc3c3ncccc3c2[nH]1, which viability, T/C is on record?
**A.** 55.6%

**Q.** How did the viability, T/C turn out when COc1cccc2c1C(=O)c1c(O)c3c(c(O)c1C2=O)CC(O)(C(=O)CO)CC3OC1CC(N)C(O)C(C)O1 (stereo unspecified) + Cc1[nH]c2ccc(F)cc2c1-c1nc2c3cccnc3c3ncccc3c2[nH]1 was run?
**A.** 28.2%

**Q.** How did the viability, T/C turn out when Cc1cccc(N(C)C(=O)C2C(O)CCN2c2nc(C)cc(C(F)(F)F)c2C#N)c1 (stereo unspecified) + Cc1[nH]c2ccc(F)cc2c1-c1nc2c3cccnc3c3ncccc3c2[nH]1 was run?
**A.** 101%

same assay, conditions: second compound 0.316 µM; first compound 3.16 µM; active compounds read low; spheroids with HUVEC and MSC

**Q.** For C=CC(=O)N1CCN(c2nc(=O)n(-c3c(C)ccnc3C(C)C)c3nc(-c4c(O)cccc4F)c(F)cc23)C(C)C1 (stereo unspecified) + Cc1[nH]c2ccc(F)cc2c1-c1nc2c3cccnc3c3ncccc3c2[nH]1, which viability, T/C is on record?
**A.** 119%

**Q.** COc1cc(C2c3cc4c(cc3C(OC3OC5COC(C)OC5C(O)C3O)C3COC(=O)C23)OCO4)cc(OC)c1O (stereo unspecified) + Cc1[nH]c2ccc(F)cc2c1-c1nc2c3cccnc3c3ncccc3c2[nH]1 was tested. Which viability, T/C did it give?
**A.** 23.9%

**Q.** Which viability, T/C does the source give for COc1cccc2c1C(=O)c1c(O)c3c(c(O)c1C2=O)CC(O)(C(=O)CO)CC3OC1CC(N)C(O)C(C)O1 (stereo unspecified) + Cc1[nH]c2ccc(F)cc2c1-c1nc2c3cccnc3c3ncccc3c2[nH]1 here?
**A.** 11.8%

**Q.** Which viability, T/C does the source give for Cc1cccc(N(C)C(=O)C2C(O)CCN2c2nc(C)cc(C(F)(F)F)c2C#N)c1 (stereo unspecified) + Cc1[nH]c2ccc(F)cc2c1-c1nc2c3cccnc3c3ncccc3c2[nH]1 here?
**A.** 109%

same assay, conditions: second compound 0.316 µM; first compound 10 µM; active compounds read low; spheroids with HUVEC and MSC

**Q.** Which viability, T/C does the source give for C=CC(=O)N1CCN(c2nc(=O)n(-c3c(C)ccnc3C(C)C)c3nc(-c4c(O)cccc4F)c(F)cc23)C(C)C1 (stereo unspecified) + Cc1[nH]c2ccc(F)cc2c1-c1nc2c3cccnc3c3ncccc3c2[nH]1 here?
**A.** 113%

**Q.** Which viability, T/C does the source give for COc1cc(C2c3cc4c(cc3C(OC3OC5COC(C)OC5C(O)C3O)C3COC(=O)C23)OCO4)cc(OC)c1O (stereo unspecified) + Cc1[nH]c2ccc(F)cc2c1-c1nc2c3cccnc3c3ncccc3c2[nH]1 here?
**A.** 12.4%

**Q.** How did the viability, T/C turn out when COc1cccc2c1C(=O)c1c(O)c3c(c(O)c1C2=O)CC(O)(C(=O)CO)CC3OC1CC(N)C(O)C(C)O1 (stereo unspecified) + Cc1[nH]c2ccc(F)cc2c1-c1nc2c3cccnc3c3ncccc3c2[nH]1 was run?
**A.** 0.44%

**Q.** With Cc1cccc(N(C)C(=O)C2C(O)CCN2c2nc(C)cc(C(F)(F)F)c2C#N)c1 (stereo unspecified) + Cc1[nH]c2ccc(F)cc2c1-c1nc2c3cccnc3c3ncccc3c2[nH]1 as the molecule, how does the viability, T/C read?
**A.** 110%

same assay, conditions: second compound 1 µM; first compound 0.000999 µM; active compounds read low; spheroids with HUVEC and MSC

**Q.** For CCc1c2c(nc3ccc(O)cc13)-c1cc3c(c(=O)n1C2)COC(=O)[C@]3(O)CC + Cc1[nH]c2ccc(F)cc2c1-c1nc2c3cccnc3c3ncccc3c2[nH]1, which viability, T/C is on record?
**A.** 67.3%

same assay, conditions: second compound 1 µM; first compound 0.00316 µM; active compounds read low; spheroids with HUVEC and MSC

**Q.** With CCc1c2c(nc3ccc(O)cc13)-c1cc3c(c(=O)n1C2)COC(=O)[C@]3(O)CC + Cc1[nH]c2ccc(F)cc2c1-c1nc2c3cccnc3c3ncccc3c2[nH]1 as the molecule, how does the viability, T/C read?
**A.** 22.5%

same assay, conditions: second compound 1 µM; first compound 0.00999 µM; active compounds read low; spheroids with HUVEC and MSC

**Q.** CCc1c2c(nc3ccc(O)cc13)-c1cc3c(c(=O)n1C2)COC(=O)[C@]3(O)CC + Cc1[nH]c2ccc(F)cc2c1-c1nc2c3cccnc3c3ncccc3c2[nH]1 was tested. Which viability, T/C did it give?
**A.** 22%

same assay, conditions: second compound 1 µM; first compound 0.0316 µM; active compounds read low; spheroids with HUVEC and MSC

**Q.** How did the viability, T/C turn out when C=CC(=O)N1CCN(c2nc(=O)n(-c3c(C)ccnc3C(C)C)c3nc(-c4c(O)cccc4F)c(F)cc23)C(C)C1 (stereo unspecified) + Cc1[nH]c2ccc(F)cc2c1-c1nc2c3cccnc3c3ncccc3c2[nH]1 was run?
**A.** 107%

**Q.** How did the viability, T/C turn out when CCc1c2c(nc3ccc(O)cc13)-c1cc3c(c(=O)n1C2)COC(=O)[C@]3(O)CC + Cc1[nH]c2ccc(F)cc2c1-c1nc2c3cccnc3c3ncccc3c2[nH]1 was run?
**A.** 13.3%

**Q.** With COc1cc(C2c3cc4c(cc3C(OC3OC5COC(C)OC5C(O)C3O)C3COC(=O)C23)OCO4)cc(OC)c1O (stereo unspecified) + Cc1[nH]c2ccc(F)cc2c1-c1nc2c3cccnc3c3ncccc3c2[nH]1 as the molecule, how does the viability, T/C read?
**A.** 93.7%

**Q.** Which viability, T/C does the source give for COc1cccc2c1C(=O)c1c(O)c3c(c(O)c1C2=O)CC(O)(C(=O)CO)CC3OC1CC(N)C(O)C(C)O1 (stereo unspecified) + Cc1[nH]c2ccc(F)cc2c1-c1nc2c3cccnc3c3ncccc3c2[nH]1 here?
**A.** 90.6%

**Q.** For Cc1cccc(N(C)C(=O)C2C(O)CCN2c2nc(C)cc(C(F)(F)F)c2C#N)c1 (stereo unspecified) + Cc1[nH]c2ccc(F)cc2c1-c1nc2c3cccnc3c3ncccc3c2[nH]1, which viability, T/C is on record?
**A.** 103%

same assay, conditions: second compound 1 µM; first compound 0.0999 µM; active compounds read low; spheroids with HUVEC and MSC

**Q.** For CCc1c2c(nc3ccc(O)cc13)-c1cc3c(c(=O)n1C2)COC(=O)[C@]3(O)CC + Cc1[nH]c2ccc(F)cc2c1-c1nc2c3cccnc3c3ncccc3c2[nH]1, which viability, T/C is on record?
**A.** 7.87%

same assay, conditions: second compound 1 µM; first compound 0.1 µM; active compounds read low; spheroids with HUVEC and MSC

**Q.** How did the viability, T/C turn out when C=CC(=O)N1CCN(c2nc(=O)n(-c3c(C)ccnc3C(C)C)c3nc(-c4c(O)cccc4F)c(F)cc23)C(C)C1 (stereo unspecified) + Cc1[nH]c2ccc(F)cc2c1-c1nc2c3cccnc3c3ncccc3c2[nH]1 was run?
**A.** 97%

**Q.** For COc1cc(C2c3cc4c(cc3C(OC3OC5COC(C)OC5C(O)C3O)C3COC(=O)C23)OCO4)cc(OC)c1O (stereo unspecified) + Cc1[nH]c2ccc(F)cc2c1-c1nc2c3cccnc3c3ncccc3c2[nH]1, which viability, T/C is on record?
**A.** 98.3%
